Seven molecules from US11679107B2 (Eisai R&D Management Co., Ltd., priority 2018, dated 2023) can be followed below.

One assay addresses T1, SF3b complexes (Homo sapiens, UniProt O75533+Q7RTV0).
T1 construct: endogenous in cells; host or cells: Nuclear extracts; A HeLa S3 extract preparation is described for the in vitro splicing assay
Description: Scintillation proximity assay (SPA) with [3H]-labelled pladienolide probe. The assay is classed as binding. The conditions noted are these: SF3B1 (WT); geometric mean; read-out: SPA-ATS GMean IC50 (nM) SF3B1 (WT). In outline: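 SF3b complexes captured from nuclear extracts on anti-SF3B1 antibody SPA beads; test compounds pre-incubated 30 min before 2.5 nM [3H]-pladienolide probe added, then 30 min incubation. Bound probe read by scintillation; values from non-linear regression of concentration–response curves.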

The subject of assay [1] is Ad2 variant pre-mRNAs spliced in HeLa S3 nuclear extracts. Description: In vitro splicing assay (IVS), RT-qPCR of spliced product. In kind it is biochemical. The note with it: geometric mean. An outline of the steps: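 Read-out is one-step TaqMan RT-qPCR of spliced Ad2 mRNA with Ftz as reference, normalized to DMSO and fit by non-linear regression. Reactions held HeLa S3 nuclear extract, 2 ng Ad2-derived pre-mRNA and test compound, with 15 min preincubation. Splicing was started with ATP-containing activation buffer and run 90 min at 30 °C.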
On the technique in general: Real-time PCR tracks product formation cycle by cycle.

Assay [2] relates to NCI-H1568 cells (high MCL1). Description: Cell proliferation and viability, CellTiter-Glo, 72 hours. The assay is classed as cell-based. The note with it: for GI50: geometric mean; for CTGlo-ATS Mean MinResponse % 72 h NCIH1568.1: −100% cidal, 0% static, 100% maximal growth. In outline:
(§1)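 ATP luminescence (CellTiter-Glo) was measured 72 h after treatment with compound at 10 μM–100 pM (11 points, half-log) in 0.1% DMSO. The Panc line was grown in RPMI-1640 plus insulin and 15% FBS, the other in 10% FBS. Data were normalised to time zero and vehicle controls, where −100% is cidal and 0% static.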
Background: ATP-based viability assays read luminescence as a measure of living cells.

Assay [3] concerns Panc 05.04 cells (SF3b K700E mutant). The description is as above. The conditions noted are these: for CTGlo-ATS Mean MinResponse % 72 h PANC0504.1: −100% cidal, 0% static, 100% maximal growth; for GI50: geometric mean. The assay is classed as cell-based. An outline of the steps: as §1
Where [4] appears, read: Ad2.1 pre-mRNA substrate, read-out: qPCR-IVS-ATS GMean IC50 (nM) Ad2.1.
The mark [5] stands for this setting: Ad2.2 pre-mRNA substrate, read-out: qPCR-IVS-ATS GMean IC50 (nM) Ad2.2.
Setting [6] is: NCI-H1568, read-out: CTGlo-ATS GMean GI50 (nM) 72 h NCIH1568.1, NCIH1568.1 cells, 72 h.
[7] abbreviates: Panc 05.04, read-out: CTGlo-ATS GMean GI50 (nM) 72 h PANC0504.1, PANC0504.1 cells, 72 h.

Like-named read-outs stand apart in the source and are kept apart here.

The term IC50 denotes the concentration needed to halve the response being measured. By GI50 is commonly meant the concentration giving 50% growth inhibition. With `C=CS(=O)(=O)N1CCN(c2cc(F)cc(/C=C(\C)[C@H]3OC(=O)C[C@H](O)CC[C@H](C)[C@@H](OC(=O)N4CCN(C)CC4)/C=C/[C@@H]3C)c2)CC1` [Compound 74], the 50% inhibitory concentration (IC50) is 4.88 nM on SF3b complexes, 34.5 nM in assay [1] (setting [4]) and 20.8 nM in assay [1] (setting [5]). Besides, the GI50 is 4.69 nM in assay [2] (setting [6]) and 13.1 nM in assay [3] (setting [7]). Besides, in assay [2] (NCIH1568.1 cells, 72 h), the “CTGlo-ATS Mean MinResponse % 72 h NCIH1568.1” value is listed as −99.528%. Moreover, the “CTGlo-ATS Mean MinResponse % 72 h PANC0504.1” value in assay [3] (PANC0504.1 cells, 72 h) is reported as −64.747%.
For `C/C(=C\c1cc(F)cc(N2CCOC[C@H]2C)c1)[C@H]1OC(=O)C[C@H](O)CC[C@H](C)[C@@H](OC(=O)N2CCN(C)CC2)/C=C/[C@@H]1C` [Compound 75], the results for the half-maximal inhibitory concentration (IC50) (at SF3b complexes; in assay [1] (setting [4]); in assay [1] (setting [5])) were 2.15 nM, 19 nM and 15.4 nM, respectively. Besides, the GI50 was 3.58 nM in assay [2] (setting [6]) and 3.69 nM in assay [3] (setting [7]). The “CTGlo-ATS Mean MinResponse % 72 h NCIH1568.1” value in assay [2] (NCIH1568.1 cells, 72 h) was −85.064%. In addition, the “CTGlo-ATS Mean MinResponse % 72 h PANC0504.1” value in assay [3] (PANC0504.1 cells, 72 h) is listed as −81.995%.
Turning to `C/C(=C\c1cc(F)cc(N2CCO[C@H](CO)C2)c1)[C@H]1OC(=O)C[C@H](O)CC[C@H](C)[C@@H](OC(=O)N2CCN(C)CC2)/C=C/[C@@H]1C` [Compound 76], the IC50 was 4.2 nM on SF3b complexes, 21.5 nM in assay [1] (setting [4]) and 17.7 nM in assay [1] (setting [5]). The GI50 in assay [2] (NCI-H1568, 72 h, read-out: CTGlo-ATS GMean GI50 (nM) 72 h NCIH1568.1, NCIH1568.1 cells, 72 h) came out at 3.02 nM; in assay [3] (Panc 05.04, 72 h, read-out: CTGlo-ATS GMean GI50 (nM) 72 h PANC0504.1, PANC0504.1 cells, 72 h), 5.17 nM. In assay [2] (NCIH1568.1 cells, 72 h), the “CTGlo-ATS Mean MinResponse % 72 h NCIH1568.1” value is recorded as −77.948%. Further, the “CTGlo-ATS Mean MinResponse % 72 h PANC0504.1” value in assay [3] (PANC0504.1 cells, 72 h) is −90.504%.
On to `C/C(=C\c1cc(F)cc(N2CCOC[C@@H]2CO)c1)[C@H]1OC(=O)C[C@H](O)CC[C@H](C)[C@@H](OC(=O)N2CCN(C)CC2)/C=C/[C@@H]1C` [Compound 77], for which the values for the half-maximal inhibitory concentration (IC50) (at SF3b complexes; in assay [1] (setting [4]); in assay [1] (setting [5])) were 1.78 nM, 16.1 nM and 13.3 nM, respectively. Further, the GI50 in assay [2] (setting [6]) is 1.79 nM; in assay [3] (setting [7]), 3.9 nM. The “CTGlo-ATS Mean MinResponse % 72 h NCIH1568.1” value in assay [2] (NCIH1568.1 cells, 72 h) is recorded as −82.189%. In addition, the “CTGlo-ATS Mean MinResponse % 72 h PANC0504.1” value in assay [3] (PANC0504.1 cells, 72 h) is reported as −86.524%.
As for `CNC(=O)[C@H]1CN(c2cc(F)cc(/C=C(\C)[C@H]3OC(=O)C[C@H](O)CC[C@H](C)[C@@H](OC(=O)N4CCN(C)CC4)/C=C/[C@@H]3C)c2)CCO1` [Compound 78], the figures for the IC50 (at SF3b complexes; in assay [1] (setting [4]); in assay [1] (setting [5])) were 1.76 nM, 24.3 nM and 13.8 nM, respectively. Besides, the GI50 in assay [2] (setting [6]) stood at 2.5 nM; in assay [3] (setting [7]) it was 7.33 nM. The “CTGlo-ATS Mean MinResponse % 72 h NCIH1568.1” value in assay [2] (NCIH1568.1 cells, 72 h) is −74.454%. Also, in assay [3] (PANC0504.1 cells, 72 h), the “CTGlo-ATS Mean MinResponse % 72 h PANC0504.1” value is reported as −93.916%.
`C/C(=C\c1cc(F)cc(N2CCOCC2)c1)[C@H]1OC(=O)C[C@H](O)CC[C@H](C)[C@@H](OC(=O)N2CCN3CCCC3C2)/C=C/[C@@H]1C` (stereo partly shown) [Compound 82]: the IC50 on SF3b complexes came to 3.79 nM; in assay [1] (setting [4]), 68.6 nM; in assay [1] (setting [5]) it was 28.2 nM. Also, the GI50 in assay [2] (setting [6]) worked out at 12.2 nM; in assay [3] (setting [7]) it was 8.74 nM. In addition, the “CTGlo-ATS Mean MinResponse % 72 h NCIH1568.1” value in assay [2] (NCIH1568.1 cells, 72 h) is given as −60.656%. Also, the “CTGlo-ATS Mean MinResponse % 72 h PANC0504.1” value in assay [3] (PANC0504.1 cells, 72 h) is listed as −88.044%.
On to `C/C(=C\c1cc(F)cc(N2CCOC[C@@H]2C)c1)[C@H]1OC(=O)C[C@H](O)CC[C@H](C)[C@@H](OC(=O)N2CCN(C)CC2)/C=C/[C@@H]1C` [Compound 83], for which the IC50 on SF3b complexes came out at 4.57 nM; in assay [1] (setting [4]), 159 nM; in assay [1] (setting [5]) it was 49 nM. Also, the GI50 in assay [2] (setting [6]) was 17.3 nM; in assay [3] (setting [7]), 15.6 nM. The “CTGlo-ATS Mean MinResponse % 72 h NCIH1568.1” value in assay [2] (NCIH1568.1 cells, 72 h) is reported as −68.447%. In addition, the “CTGlo-ATS Mean MinResponse % 72 h PANC0504.1” value in assay [3] (PANC0504.1 cells, 72 h) is −94.723%.
